In patent US9410217B2, “Method of reducing a fermentation and/or enzyme inhibitor in a saccharide-containing composition” (priority 2014, dated 2016):
Several values for one entry are separate records, joined by “and”; a condition that tells them apart may be missing. Equal entries are not always repeated. Where two headings read alike, the source gives them in different places.

How the values were obtained:
Saccharomyces cerevisiae = experiment: Fermentation test of treated sugar liquor with yeast; assay type: cell-based
Method: The saccharide-containing compositions of Examples 1 and 3 were subjected to a fermentation test with the yeast Saccharomyces cerevisiae. In the fermentation test, 1% yeast extract and 2% peptone were added to the saccharide-containing compositions of Examples 1 and 3 as growth nutrients, and these compositions were then inoculated with 5% inoculum of Saccharomyces cerevisiae (optical density 10). If more than 80% of sugars were consumed in 72 hours of fermentation, the test is considered a “pass” (i.e., a satisfactory test result).
The saccharide-containing compositions were subjected to a fermentation test with the yeast Saccharomyces cerevisiae. In the fermentation test, 1% yeast extract and 2% peptone were added to the saccharide-containing compositions as growth nutrients, and these compositions were then inoculated with 5% inoculum of Saccharomyces cerevisiae (optical density 10). If more than 80% of sugars were consumed in 72 hours of fermentation, the test is considered a “pass” (i.e., a satisfactory test result).

[1] = Reduction of HMF in sugar liquor after contact with amine
Method: Sugar liquor was prepared by a two-step hydrolysis process with subsequent refining. A slurry of particulate biomass was first subjected to a first hydrolysis step at about 190-240° C. and 50-80 bar for 1-120 min. The resulting solids were subjected to supercritical or near-critical water conditions at about 374-450° C. and 221-300 bar for less than 1 minute. The resulting liquid portion was concentrated to about 250-300 g/L of monomer sugar equivalent and acid hydrolyzed at about 100-200° C. for 1 hour. The acid-hydrolyzed liquor was filtered and neutralized with sodium hydroxide to a pH of about 5-7. After that, the liquid portion was overlimed with calcium oxide at pH of about 8-10 and filtered. The final pH adjustment to about 5-7 was done with 70% sulfuric acid. Overliming was performed to produce the sugar liquor used in these examples, and an aldehyde compound, HMF, subsequently re-added to simulate a sugar liquor that is not overlimed.
The pH of 100 g of the sugar liquor was adjusted to 6 with sodium hydroxide prior to addition of the amine. 1 g of m-phenylenediamine (MPD) was added to the sugar liquor, and the mixture was shaken for 1 hour.
Using the same procedure to prepare the sugar liquor as described in Example 1, the pH of 100 g of the sugar liquor was adjusted to 6 with NaOH prior to addition of the amine. For each sample, 1 g of amine was added, and the mixture was shaken for 1 hour.
Using the same procedure to prepare the sugar liquor as described in Example 1, the pH of 100 g of the sugar liquor was adjusted to 6 with sodium hydroxide prior to addition of the amine. For each sample, 1 g of amine was added, and the mixture was shaken for 1 hour.

Pichia stipitis = experiment: Fermentation testing of treated xylose monomer stream; assay type: cell-based
Method: For fermentation testing, the pH was adjusted back to 5 with H2SO4 and fermentation was performed with the xylose fermenting organism Pichia stipitis.

[2] = Reduction of syringaldehyde in xylose monomer stream (GC/MS); conditions: for Syringaldehyde: 100 g xylose monomer stream after treatment, shaken 30-60 min, untreated control 321.5 ppm; for syringaldehyde reduction (in words): xylose monomer stream, from about 321.5 ppm, pass is less than about 50 ppm
Method: The acid-hydrolyzed liquor was filtered and then neutralized with sodium hydroxide to a pH of about 5-7 to produce the xylose monomer stream. Five samples labeled Samples 1-5 were evaluated as described in Table 2. Sample 1 was an untreated control. […] The flask was shaken for 30-60 min, and Samples 2 and 5 were then analyzed for syringaldehyde by GC/MS. […] The flask was shaken for about 30-60 min, adjusted to pH of about 5 with H2SO4, and then filtered. The resulting liquid portion was analyzed by GC/MS. For Sample 4, the pH of 100 g of the xylose monomer stream was adjusted to 5-6 with NH4OH, the flask was shaken for 30-60 min, and then the samples were analyzed by GC/MS.

[3] = sugar liquor after contact, 1 g amine per 100 g liquor, pH 6, shaken 1 hour

Row | Structure (SMILES) | % Glucose Consumed (Saccharomyces cerevisiae; 24 hr) | Ethanol (Saccharomyces cerevisiae; 24 hr) | % Glucose Consumed (Saccharomyces cerevisiae; 48 hr) | Ethanol (Saccharomyces cerevisiae; 48 hr) | % Glucose Consumed (Saccharomyces cerevisiae; 72 hr) | Ethanol (Saccharomyces cerevisiae; 72 hr) | HMF [1, 3] | HMF (Saccharomyces cerevisiae; 72 hr) | HMF (Saccharomyces cerevisiae; 24 hr) | HMF (Saccharomyces cerevisiae; 48 hr) | further results
1 | Cc1ccc(N)cc1N [DAT, 2,4-diaminotoluene] | 51.55% | 43.15 g/L | 96.03% | 92.29 g/L | 95.88% | 86.38 g/L | 0.74 g/L | – | – | – | –
2 | Nc1cccc(N)c1 [MPD, m-phenylenediamine] | 95.64% | 77.25 g/L | – | – | – | – | 1.50 g/L | – | – | – | Ethanol (Pichia stipitis; fermentation time 48 hr): 1.80 g/L; Ethanol (Pichia stipitis; fermentation time 72 hr): 4.86 g/L; Ethanol (Pichia stipitis; fermentation time 96 hr): 8.22 g/L; fermentability of treated sample (in words) (Pichia stipitis; xylose monomer stream, pH adjusted back to 5): fermentable; Syringaldehyde [2]: Not detected; syringaldehyde reduction (in words) [2]: below detectable levels
3 | N.O [NH4OH] | – | – | – | – | – | – | – | – | – | – | Syringaldehyde [2]: 147.7 ppm; syringaldehyde reduction (in words) [2]: did not reduce the concentration of syringaldehyde to below a detectable level
4 | [BH4-].[Na+] [NaBH4] | – | – | – | – | – | – | – | – | – | – | Syringaldehyde [2]: 218.4 ppm; syringaldehyde reduction (in words) [2]: did not reduce the concentration of syringaldehyde to below a detectable level
5 | Nc1ccccc1N [OPD, o-phenylenediamine] | 24.24% | 16.80 g/L | 96.61% | 86.88 g/L | 96.53% | 90.28 g/L | – | 0.36 g/L | – | – | –
6 | Nc1ccc(N)cc1 [PPD, p-phenylenediamine] | 24.18% | 13.74 g/L | 97.75% | 84.75 g/L | 97.40% | 84.79 g/L | 3.40 g/L | – | 0.30 g/L | 0.37 g/L | –
7 | Nc1ccccc1 [aniline] | 5.19% | 1.55 g/L | 5.19% | 1.51 g/L | – | – | 7.43 g/L | – | 5.2 g/L | 4.89 g/L | –
8 | NCCO [ethanolamine] | 7.92% | 3.53 g/L | 6.29% | 2.74 g/L | 7.45% | 2.92 g/L | 6.01 g/L | 4.67 g/L | 5.24 g/L | 5.03 g/L | % Glucose Consumed (Saccharomyces cerevisiae; 120 hr): 12.73%; Ethanol (Saccharomyces cerevisiae; 120 hr): 3.54 g/L; HMF (Saccharomyces cerevisiae; 120 hr): 4.46 g/L
9 | Nc1nc(N)nc(N)n1 [melamine] | 4.24% | 2.13 g/L | 4.15% | 2.48 g/L | 4.97% | 2.1 g/L | 7.52 g/L | 6.45 g/L | 6.59 g/L | 6.47 g/L | % Glucose Consumed (Saccharomyces cerevisiae; 0 hr): 0%; HMF (Saccharomyces cerevisiae; 0 hr): 7.52 g/L
10 | C1CCNCC1 [piperidine] | – | – | – | – | – | – | – | – | – | – | % Glucose Consumed (Saccharomyces cerevisiae): 5.39% and 8.05% and 5.62% and 5.78%; Ethanol (Saccharomyces cerevisiae): 2.37 g/L and 2.49 g/L and 2.71 g/L and 2.15 g/L; HMF (Saccharomyces cerevisiae): 5.31 g/L and 4.83 g/L and 5.51 g/L and 5.61 g/L; HMF ([1]; pH 6): 6.13 g/L
11 | NC(N)=O [urea] | 6.18% | 2.72 g/L | 4.49% | 2.23 g/L | 6.35% | 2.39 g/L | 7.44 g/L | 6.06 g/L | 6.58 g/L | 6.49 g/L | % Glucose Consumed (Saccharomyces cerevisiae; 0 hr): 0%; Ethanol (Saccharomyces cerevisiae; 0 hr): 1.38 g/L; HMF (Saccharomyces cerevisiae; 0 hr): 7.44 g/L; % Glucose Consumed (Saccharomyces cerevisiae; 120 hr): 8.49%; Ethanol (Saccharomyces cerevisiae; 120 hr): 2.41 g/L; HMF (Saccharomyces cerevisiae; 120 hr): 5.66 g/L
